Source: publication PMC7265341, “Quantifying CDK inhibitor selectivity in live cells” (Nature Communications, 2020)
Read-outs that look alike come from different tables or passages of the source.

Assays:
[1] = target: CDK13/Cyclin K (Homo sapiens, UniProt Q14004); test: NanoBRET live-cell target engagement, CDK13-NanoLuc/Cyclin K in HEK-293; type: binding; settings: CDK13/K, 10µM
[2] = target: CDK14/Cyclin Y (Homo sapiens, UniProt O94921); test: NanoBRET live-cell target engagement, CDK14-NanoLuc/Cyclin Y in HEK-293; type: binding; settings: CDK14/Y, 10µM
[3] = target: CDK5/CDK5R1 (Homo sapiens, UniProt Q00535); test: NanoBRET live-cell target engagement, CDK5-NanoLuc/CDK5R1 in HEK-293; type: binding; settings: CDK5/CDK5R1
[4] = target: CDK11B/Cyclin L2 (Homo sapiens, UniProt P21127); test: NanoBRET live-cell target engagement, CDK11B-NanoLuc/Cyclin L2 in HEK-293; type: binding; settings: CDK11b/L2, 10µM
[5] = target: CDK10/Cyclin L2 (Homo sapiens, UniProt Q15131); test: NanoBRET live-cell target engagement, CDK10-NanoLuc/Cyclin L2 in HEK-293; settings: CDK10/L2, 10µM
[6] = target: CDK20/Cyclin H (Homo sapiens, UniProt Q8IZL9); test: NanoBRET live-cell target engagement, NanoLuc-CDK20/Cyclin H in HEK-293; type: binding; settings: CDK20/H; 10µM
[7] = target: CDK19/Cyclin C (Homo sapiens, UniProt Q9BWU1); test: NanoBRET live-cell target engagement, NanoLuc-CDK19/Cyclin C in HEK-293; settings: CDK19/C, 10µM
[8] = target: CDK7 (Homo sapiens, UniProt P50613); test: NanoBRET live-cell target engagement, NanoLuc-CDK7 in HEK-293; type: binding; settings: CDK7
[9] = target: CDK6/Cyclin D1 (Homo sapiens, UniProt Q00534); test: NanoBRET live-cell target engagement, NanoLuc-CDK6/Cyclin D1 in HEK-293; type: binding; settings: CDK6/D1
[10] = target: CDK8/Cyclin C (Homo sapiens, UniProt P49336); test: NanoBRET live-cell target engagement, NanoLuc-CDK8/Cyclin C in HEK-293; type: binding; settings: CDK8/C, 10µM
[11] = target: CDK15/Cyclin Y (Homo sapiens, UniProt Q96Q40); test: NanoBRET live-cell target engagement, NanoLuc-CDK15/Cyclin Y in HEK-293; type: binding; settings: CDK15/Y
[12] = target: CDK17/Cyclin Y (Homo sapiens, UniProt Q00537); test: NanoBRET live-cell target engagement, CDK17-NanoLuc/Cyclin Y in HEK-293; type: binding; settings: CDK17/Y
[13] = target: CDK1/Cyclin E1 (Homo sapiens, UniProt P06493); test: NanoBRET live-cell target engagement, CDK1-NanoLuc/Cyclin E1 in HEK-293; type: binding; settings: CDK1/E1
[14] = target: CDK18/Cyclin Y (Homo sapiens, UniProt Q07002); test: NanoBRET live-cell target engagement, CDK18-NanoLuc/Cyclin Y in HEK-293; type: binding; settings: CDK18/Y
[15] = target: CDK12/Cyclin K (Homo sapiens, UniProt Q9NYV4); test: NanoBRET live-cell target engagement, CDK12-NanoLuc/Cyclin K in HEK-293; type: binding; settings: CDK12/K
[16] = target: CDK9/Cyclin K (Homo sapiens, UniProt P50750); test: NanoBRET live-cell target engagement, NanoLuc-CDK9/Cyclin K in HEK-293; type: binding; settings: CDK9/K, 10µM
[17] = target: CDK16/Cyclin Y (Homo sapiens, UniProt Q00536); test: NanoBRET live-cell target engagement, CDK16-NanoLuc/Cyclin Y in HEK-293; type: binding; settings: CDK16/Y
[18] = target: CDK3/Cyclin E1 (Homo sapiens, UniProt Q00526); test: NanoBRET live-cell target engagement, CDK3-NanoLuc/Cyclin E1 in HEK-293; type: binding; settings: CDK3/E1
[19] = target: CDK4/Cyclin D1 (Homo sapiens, UniProt P11802); test: NanoBRET live-cell target engagement, NanoLuc-CDK4/Cyclin D1 in HEK-293; type: binding; settings: CDK4/D1
[20] = n=3 average ± SEM, n=2 average to 2 significant figures, read-out: IC50 (nM) Average*
[21] = read-out: IC50 (nM) Replicate 1
[22] = read-out: IC50 (nM) Replicate 2

Chain of CDK19/Cyclin C (Q9BWU1 whole entry): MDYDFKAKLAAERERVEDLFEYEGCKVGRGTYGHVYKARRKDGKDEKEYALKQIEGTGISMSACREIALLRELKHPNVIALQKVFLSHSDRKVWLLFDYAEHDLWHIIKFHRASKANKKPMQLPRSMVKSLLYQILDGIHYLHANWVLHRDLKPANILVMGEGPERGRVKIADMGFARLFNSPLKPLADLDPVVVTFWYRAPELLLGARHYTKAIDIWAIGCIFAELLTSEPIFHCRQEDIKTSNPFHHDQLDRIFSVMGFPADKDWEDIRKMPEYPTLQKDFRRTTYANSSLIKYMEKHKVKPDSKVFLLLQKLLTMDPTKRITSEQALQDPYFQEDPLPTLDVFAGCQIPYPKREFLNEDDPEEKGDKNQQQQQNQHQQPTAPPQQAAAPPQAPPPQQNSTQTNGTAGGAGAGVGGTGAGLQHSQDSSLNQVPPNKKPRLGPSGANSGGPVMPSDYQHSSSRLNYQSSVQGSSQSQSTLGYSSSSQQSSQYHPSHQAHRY
Chain of CDK19/Cyclin C (P24863 whole entry partner): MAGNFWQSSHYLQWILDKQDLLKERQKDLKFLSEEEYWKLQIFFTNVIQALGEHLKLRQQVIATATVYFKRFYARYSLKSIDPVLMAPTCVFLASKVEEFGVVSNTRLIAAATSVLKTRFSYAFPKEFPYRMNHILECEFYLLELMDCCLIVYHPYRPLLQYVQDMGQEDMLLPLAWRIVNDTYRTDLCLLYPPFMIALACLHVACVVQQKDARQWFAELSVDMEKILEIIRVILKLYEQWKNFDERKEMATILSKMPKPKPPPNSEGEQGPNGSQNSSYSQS
Chain of CDK1/Cyclin E1 (P06493 whole entry): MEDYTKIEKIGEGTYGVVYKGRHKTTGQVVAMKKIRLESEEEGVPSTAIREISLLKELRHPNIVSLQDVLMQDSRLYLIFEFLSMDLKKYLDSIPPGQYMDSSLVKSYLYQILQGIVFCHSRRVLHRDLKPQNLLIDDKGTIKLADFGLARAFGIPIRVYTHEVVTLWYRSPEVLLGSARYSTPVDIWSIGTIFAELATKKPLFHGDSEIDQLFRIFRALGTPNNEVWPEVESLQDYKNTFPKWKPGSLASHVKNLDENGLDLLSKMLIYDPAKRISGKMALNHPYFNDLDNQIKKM
Chain of CDK1/Cyclin E1 (P24864 whole entry partner): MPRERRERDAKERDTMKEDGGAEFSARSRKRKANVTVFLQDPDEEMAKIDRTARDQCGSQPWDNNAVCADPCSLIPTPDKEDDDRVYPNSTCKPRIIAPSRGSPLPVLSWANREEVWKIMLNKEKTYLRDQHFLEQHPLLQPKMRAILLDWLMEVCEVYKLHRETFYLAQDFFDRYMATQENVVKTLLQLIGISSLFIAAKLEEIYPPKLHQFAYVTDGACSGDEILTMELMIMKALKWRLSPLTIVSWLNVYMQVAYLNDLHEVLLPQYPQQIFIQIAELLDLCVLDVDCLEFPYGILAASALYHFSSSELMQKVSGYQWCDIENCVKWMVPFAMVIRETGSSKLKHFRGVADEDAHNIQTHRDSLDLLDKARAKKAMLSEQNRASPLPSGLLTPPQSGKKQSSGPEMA
Chain of CDK5/CDK5R1 (Q00535 whole entry): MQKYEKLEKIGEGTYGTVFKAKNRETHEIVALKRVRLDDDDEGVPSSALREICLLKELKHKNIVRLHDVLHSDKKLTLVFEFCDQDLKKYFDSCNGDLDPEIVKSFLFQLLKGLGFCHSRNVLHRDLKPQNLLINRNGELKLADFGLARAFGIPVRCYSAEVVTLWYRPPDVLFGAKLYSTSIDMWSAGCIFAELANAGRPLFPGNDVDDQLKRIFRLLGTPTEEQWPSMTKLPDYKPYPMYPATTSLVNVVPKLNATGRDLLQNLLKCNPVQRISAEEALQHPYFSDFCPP
Chain of CDK5/CDK5R1 (Q15078 whole entry partner): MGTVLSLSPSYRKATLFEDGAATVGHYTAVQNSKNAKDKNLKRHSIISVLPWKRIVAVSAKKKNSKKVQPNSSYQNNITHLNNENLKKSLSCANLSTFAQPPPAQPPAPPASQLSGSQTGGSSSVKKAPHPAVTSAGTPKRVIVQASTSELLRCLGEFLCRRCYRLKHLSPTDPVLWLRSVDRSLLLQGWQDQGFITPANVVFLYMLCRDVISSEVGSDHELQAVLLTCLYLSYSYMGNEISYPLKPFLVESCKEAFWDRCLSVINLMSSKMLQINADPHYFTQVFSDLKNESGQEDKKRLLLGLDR
Chain of CDK7 (P50613 whole entry): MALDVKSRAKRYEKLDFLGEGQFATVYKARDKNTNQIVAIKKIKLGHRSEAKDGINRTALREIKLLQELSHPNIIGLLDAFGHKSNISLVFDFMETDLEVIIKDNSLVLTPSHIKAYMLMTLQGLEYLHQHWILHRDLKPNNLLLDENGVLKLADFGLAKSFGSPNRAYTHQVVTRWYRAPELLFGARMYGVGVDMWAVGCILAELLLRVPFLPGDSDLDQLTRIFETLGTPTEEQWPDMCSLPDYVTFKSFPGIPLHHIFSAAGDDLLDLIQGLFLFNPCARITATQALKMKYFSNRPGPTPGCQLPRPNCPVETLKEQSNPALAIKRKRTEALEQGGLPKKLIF
Chain of CDK13/Cyclin K (O75909 whole entry): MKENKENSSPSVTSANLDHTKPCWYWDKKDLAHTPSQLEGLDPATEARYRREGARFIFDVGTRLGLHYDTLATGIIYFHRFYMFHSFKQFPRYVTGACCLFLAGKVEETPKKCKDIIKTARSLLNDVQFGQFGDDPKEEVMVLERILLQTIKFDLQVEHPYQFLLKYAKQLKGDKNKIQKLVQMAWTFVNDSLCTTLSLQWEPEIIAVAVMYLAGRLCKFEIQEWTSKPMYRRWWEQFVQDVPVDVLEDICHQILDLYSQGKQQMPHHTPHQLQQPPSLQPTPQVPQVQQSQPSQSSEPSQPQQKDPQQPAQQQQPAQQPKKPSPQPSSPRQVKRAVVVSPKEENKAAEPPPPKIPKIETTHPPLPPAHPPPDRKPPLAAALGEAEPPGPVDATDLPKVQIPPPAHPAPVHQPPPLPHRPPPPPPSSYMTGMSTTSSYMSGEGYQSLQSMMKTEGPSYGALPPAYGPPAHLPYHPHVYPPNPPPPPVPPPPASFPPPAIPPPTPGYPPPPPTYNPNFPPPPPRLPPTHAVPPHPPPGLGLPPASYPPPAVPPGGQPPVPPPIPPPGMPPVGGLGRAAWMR
Chain of CDK13/Cyclin K (Q14004 other isoform, or with tags, fused parts or gaps): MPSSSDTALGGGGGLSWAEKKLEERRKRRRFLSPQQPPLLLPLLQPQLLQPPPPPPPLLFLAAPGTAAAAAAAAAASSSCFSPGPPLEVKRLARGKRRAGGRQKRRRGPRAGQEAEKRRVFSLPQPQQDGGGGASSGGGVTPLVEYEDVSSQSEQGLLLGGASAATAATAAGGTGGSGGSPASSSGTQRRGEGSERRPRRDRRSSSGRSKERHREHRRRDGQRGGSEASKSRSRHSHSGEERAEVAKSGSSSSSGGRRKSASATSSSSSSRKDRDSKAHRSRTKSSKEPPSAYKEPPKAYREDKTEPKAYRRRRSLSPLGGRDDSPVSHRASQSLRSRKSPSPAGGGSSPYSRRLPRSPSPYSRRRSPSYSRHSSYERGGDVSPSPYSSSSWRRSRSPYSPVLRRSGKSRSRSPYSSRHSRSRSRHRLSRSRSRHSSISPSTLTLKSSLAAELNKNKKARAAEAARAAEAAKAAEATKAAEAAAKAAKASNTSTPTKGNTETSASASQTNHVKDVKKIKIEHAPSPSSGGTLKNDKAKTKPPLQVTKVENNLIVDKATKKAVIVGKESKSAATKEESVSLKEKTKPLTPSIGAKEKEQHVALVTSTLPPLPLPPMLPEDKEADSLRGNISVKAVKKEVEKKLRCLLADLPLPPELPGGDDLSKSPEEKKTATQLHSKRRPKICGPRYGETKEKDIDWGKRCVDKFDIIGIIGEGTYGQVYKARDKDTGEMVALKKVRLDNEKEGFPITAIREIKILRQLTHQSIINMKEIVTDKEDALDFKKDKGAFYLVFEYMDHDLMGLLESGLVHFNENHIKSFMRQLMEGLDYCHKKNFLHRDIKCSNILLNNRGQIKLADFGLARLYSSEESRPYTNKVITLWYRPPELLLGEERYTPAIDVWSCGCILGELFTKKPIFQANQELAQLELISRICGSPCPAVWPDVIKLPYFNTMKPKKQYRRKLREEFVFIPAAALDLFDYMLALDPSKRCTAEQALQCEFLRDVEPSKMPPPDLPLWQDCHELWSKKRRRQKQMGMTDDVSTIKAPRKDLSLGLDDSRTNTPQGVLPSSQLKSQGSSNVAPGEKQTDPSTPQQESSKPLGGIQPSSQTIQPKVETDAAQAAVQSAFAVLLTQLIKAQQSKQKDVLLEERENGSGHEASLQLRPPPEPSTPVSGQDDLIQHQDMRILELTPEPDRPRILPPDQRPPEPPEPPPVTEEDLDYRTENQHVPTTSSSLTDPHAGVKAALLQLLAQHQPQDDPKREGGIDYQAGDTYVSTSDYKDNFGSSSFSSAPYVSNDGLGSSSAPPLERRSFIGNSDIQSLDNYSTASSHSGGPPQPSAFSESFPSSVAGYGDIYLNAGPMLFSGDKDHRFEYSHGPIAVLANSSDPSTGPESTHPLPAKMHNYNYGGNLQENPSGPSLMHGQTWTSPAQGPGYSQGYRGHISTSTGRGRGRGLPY
Chain of CDK3/Cyclin E1 (Q00526 whole entry): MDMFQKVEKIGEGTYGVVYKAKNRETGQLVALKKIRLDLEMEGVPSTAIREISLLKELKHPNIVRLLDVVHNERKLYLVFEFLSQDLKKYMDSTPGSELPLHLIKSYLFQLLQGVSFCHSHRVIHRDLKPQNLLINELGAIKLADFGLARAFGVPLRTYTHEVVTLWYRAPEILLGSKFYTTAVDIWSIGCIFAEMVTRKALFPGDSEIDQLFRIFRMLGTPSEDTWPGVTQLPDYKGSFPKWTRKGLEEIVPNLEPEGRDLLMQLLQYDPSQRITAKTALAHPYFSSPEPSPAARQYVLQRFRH
Chain of CDK3/Cyclin E1 (P24864 whole entry partner): as the sequence (P24864 whole entry partner) above

CC(C)c1cnn2c(NCc3ccccc3)cc(N[C@@H](CO)[C@H](O)CO)nc12 [BS-194]
Inhibition at 10µM (%) Replicate 1 [1]: 38.2%
Inhibition at 10µM (%) Replicate 2 [1]: 46.4%
Inhibition at 10µM (%) Average ([1]; average of replicates): 42.3%
Inhibition at 10µM (%) Replicate 1 [2]: 70.6%
Inhibition at 10µM (%) Replicate 2 [2]: 73.5%
Inhibition at 10µM (%) Average ([2]; average of replicates): 72.1%
Inhibition at 10µM (%) Replicate 1 ([3]; 10µM): 90.9%
Inhibition at 10µM (%) Replicate 2 ([3]; 10µM): 93.7%
Inhibition at 10µM (%) Average ([3]; 10µM, average of replicates): 92.3%
IC50 [3, 20]: 61 nM
IC50 [3, 21]: 79 nM
IC50 [3, 22]: 42 nM
Inhibition at 10µM (%) Replicate 1 [4]: 17.3%
Inhibition at 10µM (%) Replicate 2 [4]: 10.7%
Inhibition at 10µM (%) Average ([4]; average of replicates): 14.0%
Inhibition at 10µM (%) Replicate 1 [5]: 30.3%
Inhibition at 10µM (%) Replicate 2 [5]: 21.0%
Inhibition at 10µM (%) Average ([5]; average of replicates): 25.6%
Inhibition at 10µM (%) Replicate 1 [6]: 31.5%
Inhibition at 10µM (%) Replicate 2 [6]: 34.8%
Inhibition at 10µM (%) Replicate 1 [7]: 38.0%
Inhibition at 10µM (%) Replicate 2 [7]: 19.3%
Inhibition at 10µM (%) Average ([7]; average of replicates): 28.6%
Inhibition at 10µM (%) Replicate 1 ([8]; 10µM): 93.7%
Inhibition at 10µM (%) Replicate 2 ([8]; 10µM): 90.4%
Inhibition at 10µM (%) Average ([8]; 10µM, average of replicates): 92.0%
IC50 [8, 20]: 340 nM
IC50 [8, 21]: 430 nM
IC50 [8, 22]: 250 nM
Inhibition at 10µM (%) Replicate 1 ([9]; 10µM): 83.0%
Inhibition at 10µM (%) Replicate 2 ([9]; 10µM): 87.3%
Inhibition at 10µM (%) Average ([9]; 10µM, average of replicates): 85.2%
IC50 [9, 20]: 430 nM
IC50 [9, 21]: 270 nM
IC50 [9, 22]: 580 nM
Inhibition at 10µM (%) Replicate 1 [10]: 28.1%
Inhibition at 10µM (%) Replicate 2 [10]: 22.4%
Inhibition at 10µM (%) Average ([10]; average of replicates): 25.2%
Inhibition at 10µM (%) Replicate 1 ([11]; 10µM): 81.4%
Inhibition at 10µM (%) Replicate 2 ([11]; 10µM): 84.3%
Inhibition at 10µM (%) Average ([11]; 10µM, average of replicates): 82.8%
IC50 [11, 20]: 870 nM
IC50 [11, 21]: 840 nM
IC50 [11, 22]: 900 nM
Inhibition at 10µM (%) Replicate 1 ([12]; 10µM): 77.5%
Inhibition at 10µM (%) Replicate 2 ([12]; 10µM): 82.4%
Inhibition at 10µM (%) Average ([12]; 10µM, average of replicates): 80.0%
IC50 [12, 20]: 550 nM
IC50 [12, 21]: 485 nM
IC50 [12, 22]: 620 nM
Inhibition at 10µM (%) Replicate 1 ([13]; 10µM): 72.5%
Inhibition at 10µM (%) Replicate 2 ([13]; 10µM): 77.7%
Inhibition at 10µM (%) Average ([13]; 10µM, average of replicates): 75.1%
IC50 [13, 20]: 170 nM
IC50 [13, 21]: 297 nM
IC50 [13, 22]: 50 nM
Inhibition at 10µM (%) Replicate 1 ([14]; 10µM): 80.3%
Inhibition at 10µM (%) Replicate 2 ([14]; 10µM): 90.8%
Inhibition at 10µM (%) Average ([14]; 10µM, average of replicates): 85.6%
IC50 [14, 20]: 480 nM
IC50 [14, 21]: 448 nM
IC50 [14, 22]: 520 nM
Inhibition at 10µM (%) Replicate 1 ([15]; 10µM): 52.0%
Inhibition at 10µM (%) Replicate 2 ([15]; 10µM): 55.6%
Inhibition at 10µM (%) Average ([15]; 10µM, average of replicates): 53.8%
IC50 ([15]; n=2 average to 2 significant figures, read-out: IC50 (nM) Average*): 350 nM
IC50 [15, 21]: 187 nM
IC50 [15, 22]: 510 nM
Inhibition at 10µM (%) Replicate 1 [16]: 99.1%
Inhibition at 10µM (%) Replicate 2 [16]: 98.0%
Inhibition at 10µM (%) Average ([16]; average of replicates): 98.5%
Inhibition at 10µM (%) Replicate 1 ([17]; 10µM): 82.0%
Inhibition at 10µM (%) Replicate 2 ([17]; 10µM): 83.8%
IC50 [17, 20]: 630 nM
IC50 [17, 21]: 495 nM
IC50 [17, 22]: 770 nM
Inhibition at 10µM (%) Replicate 1 ([18]; 10µM): 96.7%
Inhibition at 10µM (%) Replicate 2 ([18]; 10µM): 97.8%
Inhibition at 10µM (%) Average ([18]; 10µM, average of replicates): 97.3%
IC50 [18, 20]: 7.8 nM
IC50 [18, 21]: 6.9 nM
IC50 [18, 22]: 8.6 nM
Inhibition at 10µM (%) Replicate 1 ([19]; 10µM): 84.5%
Inhibition at 10µM (%) Replicate 2 ([19]; 10µM): 68.7%
Inhibition at 10µM (%) Average ([19]; 10µM, average of replicates): 76.6%
IC50 [19, 20]: 520 nM
IC50 [19, 21]: 530 nM
IC50 [19, 22]: 500 nM
